Measurements as given in patent publication US8487091B2, “Substituted cyclopentanes having prostaglandin activity” (Allergan, Inc., priority 2008, dated 2013).
Several values for one entry are separate records, joined by “and”; a condition that tells them apart may be missing. Equal entries are not always repeated.

Experiments:
EP2 [1] = molecular target: T1, EP2 (Homo sapiens, UniProt P43116); test: EP2 cAMP functional assay; format: cell-based
Text: (§1) United States Patent Application Publication No. 20070129552, describes the methods used to obtain the in vitro data in Table 1 below. The part of that reference which describes the method is incorporated by reference herein.

EP2 [2] = molecular target: T1, EP2; test: EP2 binding assay
Text: as §1

T1 sequence (P43116 whole entry): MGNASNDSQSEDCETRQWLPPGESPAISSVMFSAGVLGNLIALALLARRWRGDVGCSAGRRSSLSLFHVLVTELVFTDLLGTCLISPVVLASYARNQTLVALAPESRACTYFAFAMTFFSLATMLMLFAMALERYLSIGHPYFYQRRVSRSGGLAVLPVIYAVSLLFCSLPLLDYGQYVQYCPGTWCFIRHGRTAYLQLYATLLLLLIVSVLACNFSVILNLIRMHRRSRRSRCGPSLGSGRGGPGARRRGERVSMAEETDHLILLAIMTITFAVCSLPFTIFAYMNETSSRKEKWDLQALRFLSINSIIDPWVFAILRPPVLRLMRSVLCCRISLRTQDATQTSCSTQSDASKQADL

| Structure (SMILES) | EC50 (EP2 [1]) | Ki (EP2 [2]) |
| --- | --- | --- |
| CCC1(C(O)C/C=C/[C@H]2C(=O)CC[C@@H]2CCCc2ccc(C(=O)O)s2)CCC1 (stereo partly shown) [Compound 12] | 5.4 nM | 86 nM |
| CCC1(C(O)CCC[C@@H]2[C@@H](CCCc3ccc(C(=O)O)s3)CC[C@@H]2F)CCC1 (stereo partly shown) [Compound 37] | 19 nM | 25 nM |
| CCC1(C(O)CCC[C@H]2C(=O)CC[C@@H]2CCCc2ccc(C(=O)O)s2)CCC1 (stereo partly shown) [Compound 13] | 6.3 nM | 137 nM |
| CCC1(C(O)C/C=C/[C@@H]2[C@@H](CCCc3ccc(C(=O)O)s3)CC[C@H]2F)CCC1 (stereo partly shown) [Compound 25] | 5.7 nM | 16 nM and 67 nM |
| CCC1(C(O)CCCC2C(C#N)CCC2CCCc2ccc(C(=O)O)s2)CCC1 (stereo not shown) [Compound 22] | 18 nM | 123 nM |
| CCC1(C(O)CCC[C@@H]2[C@@H](CCCc3ccc(C(=O)O)s3)CC[C@H]2F)CCC1 (stereo partly shown) [Compound 27] | 8.5 nM | 15 nM and 47 nM |
| CCC1(C(O)C/C=C/C2=CCC[C@@H]2CCCc2ccc(C(=O)O)s2)CCC1 (stereo partly shown) [Compound 16] | 32 nM | 17 nM |
| CCC1(C(O)C/C=C/[C@@H]2[C@@H](CCCc3ccc(C(=O)O)s3)CC[C@@H]2C#N)CCC1 (stereo partly shown) [Compound 41] | 129 nM | 1390 nM |
| CCC1(C(O)CCC[C@@H]2[C@@H](CCCc3ccc(C(=O)O)s3)CC[C@H]2Cl)CCC1 (stereo partly shown) [Compound 67] | 11 nM | 40 nM |
| CCC1(C(O)C/C=C/[C@@H]2[C@@H](CCCc3ccc(C(=O)O)s3)CC[C@@H]2Cl)CCC1 (stereo partly shown) [Compound 50] | 117 nM | 1170 nM |
| CCC1(C(O)C/C=C/[C@@H]2[C@@H](CCCc3ccc(C(=O)O)s3)CC[C@@H]2F)CCC1 (stereo partly shown) [Compound 35] | 23 nM | 36 nM |
| CCC1(C(O)CCC[C@@H]2[C@@H](CCCc3ccc(C(=O)O)s3)CC[C@@H]2Cl)CCC1 (stereo partly shown) [Compound 51] | 114 nM | 377 nM |
| CCC1(C(O)C/C=C/[C@@H]2[C@@H](CCCc3ccc(C(=O)O)s3)CC[C@H]2Cl)CCC1 (stereo partly shown) [Compound 10] | 17 nM and 7 nM | 31 nM and 16 nM |
| CCC1(C(O)CCCC2C(C#N)CCC2CCCc2ccc(C(=O)O)s2)CCC1 (stereo not shown) [Compound 43] | 54 nM | 516 nM |
